In US8759342B2, “Benzo[1,4]oxazin-3-one, benzo[1,4]thiazin-3-one and quinolin-2-one urotensin II receptor antagonists” (Janssen Pharmaceutica NV, priority 2006, dated 2014) one finds IC50 data, which are given here for 29 compounds.

The IC50 is the midpoint of a concentration-inhibition curve.

In the assay the target is T1, rat GPR14 (U-II receptor) (Rattus norvegicus, UniProt P49684).
T1 construct: expressed in transfected cells
T1 sequence (P49684 1-386): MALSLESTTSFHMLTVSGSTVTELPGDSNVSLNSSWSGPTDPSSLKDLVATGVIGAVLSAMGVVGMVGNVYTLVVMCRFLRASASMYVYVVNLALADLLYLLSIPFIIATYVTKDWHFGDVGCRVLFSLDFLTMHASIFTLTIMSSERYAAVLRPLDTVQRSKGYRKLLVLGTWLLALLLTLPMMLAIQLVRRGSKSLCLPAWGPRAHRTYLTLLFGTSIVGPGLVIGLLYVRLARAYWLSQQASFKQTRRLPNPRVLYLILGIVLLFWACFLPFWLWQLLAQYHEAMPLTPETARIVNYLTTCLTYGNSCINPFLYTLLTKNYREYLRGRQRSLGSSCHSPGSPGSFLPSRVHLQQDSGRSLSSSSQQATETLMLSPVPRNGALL
The assay is described as follows: Calcium flux assay (FLIPR). The settings on record: Inhibition of acetyl-cyclic[Cys-Phe-Trp-Lys-(2-Nal)-Cys]-NH2 (1 nM) induced Ca2+ mobilization (FLIPR) in CHO cells transfected with rat UII receptor; 5 min incubation. The class given is cell-based. The text has this: To derive these cells, the complete coding sequence of rat […] was amplified by nested PCR from rat heart marathon-Ready cDNA. […] The PCR products were cloned into pcDNA3 (Invitrogen) digested with EcoR I and Xba I. Clones containing rat U-II receptor were verified by complete sequencing of the U-II receptor insert to ensure a lack of PCR-introduced errors. The constructed vector was transfected into CHO cells by using lipofectamine (GIBCO BRL). CHO cells with high expression of rat U-II receptor were selected and established as stable cell lines by using G418. CHO cells were seeded at 25,000 cells per well into 96-well, black-wall, clear-bottom microtiter plates 24 hrs before assay. Cells in culture media (DMEM/F12 containing 15 mM HEPES, L-glutamine, pyridoxine hydrochloride; 10% fetal bovine serum; 1 mg/mL G418 sulfate; antibiotic-antimycotic; pH 7.4) were loaded with proprietary dye, from the FLIPR Calcium Assay Kit (Molecular Devices), prepared in assay buffer (Hanks Balanced Salts Solution, 20 mM HEPES, 0.1% BSA, 2.5 mM probenecid, pH 7.4), and incubated for 1 hr at 37° C. Calcium mobilization determinations were performed at room temperature (23° C.).
On the technique in general: Calcium assays in cells follow changes in intracellular calcium, usually with a dye or a luminescent sensor.

With `O=C(NCc1ccccc1)c1ccccc1C1CCN(CCN2C(=O)COc3ccccc32)CC1` [Cpd 2, N-benzyl-2-{1-[2-(3-oxo-2,3-dihydro-benzo[1,4]oxazin-4-yl)-ethyl]-piperidin-4-yl}-benzamide], the IC50 turned out to be 7.9 µM.

On to `O=C(NCCCCc1ccccc1)c1ccccc1C1CCN(CCN2C(=O)COc3ccccc32)CC1` [Cpd 4], for which the IC50 turned out to be 3.1 µM.

Consider `CN(Cc1ccccc1)C(=O)c1ccccc1C1CCN(CCN2C(=O)COc3ccccc32)CC1` [Cpd 5, N-benzyl-N-methyl-2-{1-[2-(3-oxo-2,3-dihydro-benzo[1,4]oxazin-4-yl)-ethyl]-piperidin-4-yl}-benzamide], for which the IC50 came to 11 µM.

In the case of `COc1cccc(CCNC(=O)c2ccccc2C2CCN(CCN3C(=O)COc4ccccc43)CC2)c1` [Cpd 6, N-[2-(3-methoxy-phenyl)-ethyl]-2-{1-[2-(3-oxo-2,3-dihydro-benzo[1,4]oxazin-4-yl)-ethyl]-piperidin-4-yl}-benzamide], the IC50 is 10 µM.

On to `O=C(NCCc1ccc(Cl)cc1Cl)c1ccccc1C1CCN(CCN2C(=O)COc3ccccc32)CC1` [Cpd 7, N-[2-(2,4-dichloro-phenyl)-ethyl]-2-{1-[2-(3-oxo-2,3-dihydro-benzo[1,4]oxazin-4-yl)-ethyl]-piperidin-4-yl}-benzamide], for which the IC50 was determined as 19 µM.

Regarding `O=C(NCCc1ccccc1Cl)c1ccccc1C1CCN(CCN2C(=O)COc3ccccc32)CC1` [Cpd 8, N-[2-(2-chloro-phenyl)-ethyl]-2-{1-[2-(3-oxo-2,3-dihydro-benzo[1,4]oxazin-4-yl)-ethyl]-piperidin-4-yl}-benzamide], the IC50 was 14 µM.

`O=C(NCCc1ccc(Cl)cc1)c1ccccc1C1CCN(CCN2C(=O)COc3ccccc32)CC1` [Cpd 9, N-[2-(4-chloro-phenyl)-ethyl]-2-{1-[2-(3-oxo-2,3-dihydro-benzo[1,4]oxazin-4-yl)-ethyl]-piperidin-4-yl}-benzamide]: the IC50 came out at 3.2 µM.

Turning to `COc1ccc(CCNC(=O)c2ccccc2C2CCN(CCN3C(=O)COc4ccccc43)CC2)cc1OC` [Cpd 10, N-[2-(3,4-dimethoxy-phenyl)-ethyl]-2-{1-[2-(3-oxo-2,3-dihydro-benzo[1,4]oxazin-4-yl)-ethyl]-piperidin-4-yl}-benzamide], the IC50 amounted to 13 µM.

In the case of `O=C(NCCc1ccc(Cl)c(Cl)c1)c1ccccc1C1CCN(CCN2C(=O)COc3ccccc32)CC1` [Cpd 11, N-[2-(3,4-dichloro-phenyl)-ethyl]-2-{1-[2-(3-oxo-2,3-dihydro-benzo[1,4]oxazin-4-yl)-ethyl]-piperidin-4-yl}-benzamide], the IC50 was 5.4 µM.

On to `CC(Cc1ccc(Cl)cc1)NC(=O)c1ccccc1C1CCN(CCN2C(=O)COc3ccccc32)CC1` (centres unmarked) [Cpd 12, N-[2-(4-chloro-phenyl)-1-methyl-ethyl]-2-{1-[2-(3-oxo-2,3-dihydro-benzo[1,4]oxazin-4-yl)-ethyl]-piperidin-4-yl}-benzamide], for which the IC50 was found to be 10 µM.

Take `COc1ccc(OC)c(CCNC(=O)c2ccccc2C2CCN(CCN3C(=O)COc4ccccc43)CC2)c1` [Cpd 13, N-[2-(2,5-dimethoxy-phenyl)-ethyl]-2-{1-[2-(3-oxo-2,3-dihydro-benzo[1,4]oxazin-4-yl)-ethyl]-piperidin-4-yl}-benzamide]: the IC50 is 8 µM.

Regarding `COc1ccc(CCNC(=O)c2ccccc2C2CCN(CCN3C(=O)COc4ccccc43)CC2)cc1` [Cpd 14, N-[2-(4-methoxy-phenyl)-ethyl]-2-{1-[2-(3-oxo-2,3-dihydro-benzo[1,4]oxazin-4-yl)-ethyl]-piperidin-4-yl}-benzamide], the half-maximal inhibitory concentration (IC50) came out at 4 µM.

`COc1ccccc1CCNC(=O)c1ccccc1C1CCN(CCN2C(=O)COc3ccccc32)CC1` [Cpd 15, N-[2-(2-methoxy-phenyl)-ethyl]-2-{1-[2-(3-oxo-2,3-dihydro-benzo[1,4]oxazin-4-yl)-ethyl]-piperidin-4-yl}-benzamide]: the IC50 came to 8 µM.

Take `O=C(NCCc1ccc(F)cc1)c1ccccc1C1CCN(CCN2C(=O)COc3ccccc32)CC1` [Cpd 16, N-[2-(4-fluoro-phenyl)-ethyl]-2-{1-[2-(3-oxo-2,3-dihydro-benzo[1,4]oxazin-4-yl)-ethyl]-piperidin-4-yl}-benzamide]: the IC50 was found to be 8 µM.

For the compound `COc1cc(CCNC(=O)c2ccccc2C2CCN(CCN3C(=O)COc4ccccc43)CC2)cc(OC)c1` [Cpd 17, N-[2-(3,5-dimethoxy-phenyl)-ethyl]-2-{1-[2-(3-oxo-2,3-dihydro-benzo[1,4]oxazin-4-yl)-ethyl]-piperidin-4-yl}-benzamide], the IC50 was 7 µM.

Take `CN(CCc1ccccc1)C(=O)c1ccccc1C1CCN(CCN2C(=O)COc3ccccc32)CC1` [Cpd 18, N-methyl-2-{1-[2-(3-oxo-2,3-dihydro-benzo[1,4]oxazin-4-yl)-ethyl]-piperidin-4-yl}-N-phenethyl-benzamide]: the IC50 came to 15 µM.

In the case of `O=C(NCCc1ccc(F)c(F)c1)c1ccccc1C1CCN(CCN2C(=O)COc3ccccc32)CC1` [Cpd 19, N-[2-(3,4-difluoro-phenyl)-ethyl]-2-{1-[2-(3-oxo-2,3-dihydro-benzo[1,4]oxazin-4-yl)-ethyl]-piperidin-4-yl}-benzamide], the IC50 is 6 µM.

`O=C(NCCc1cc(F)cc(F)c1)c1ccccc1C1CCN(CCN2C(=O)COc3ccccc32)CC1` [Cpd 21, N-[2-(3,5-difluoro-phenyl)-ethyl]-2-{1-[2-(3-oxo-2,3-dihydro-benzo[1,4]oxazin-4-yl)-ethyl]-piperidin-4-yl}-benzamide]: the IC50 was determined as 9 µM.

Regarding `O=C(NCCc1cc(F)ccc1F)c1ccccc1C1CCN(CCN2C(=O)COc3ccccc32)CC1` [Cpd 22, N-[2-(2,5-difluoro-phenyl)-ethyl]-2-{1-[2-(3-oxo-2,3-dihydro-benzo[1,4]oxazin-4-yl)-ethyl]-piperidin-4-yl}-benzamide], the IC50 was 13 µM.

Turning to `O=C(NCCc1cccc(F)c1F)c1ccccc1C1CCN(CCN2C(=O)COc3ccccc32)CC1` [Cpd 23, N-[2-(2,3-difluoro-phenyl)-ethyl]-2-{1-[2-(3-oxo-2,3-dihydro-benzo[1,4]oxazin-4-yl)-ethyl]-piperidin-4-yl}-benzamide], the IC50 was found to be 7 µM.

As to `O=C(NCC1CC1)c1ccccc1C1CCN(CCN2C(=O)COc3ccccc32)CC1` [Cpd 24, N-cyclopropylmethyl-2-{1-[2-(3-oxo-2,3-dihydro-benzo[1,4]oxazin-4-yl)-ethyl]-piperidin-4-yl}-benzamide], the IC50 came to 12 µM.

`CC(CCc1ccccc1)NC(=O)c1ccccc1C1CCN(CCN2C(=O)COc3ccccc32)CC1` (centres unmarked) [Cpd 25, N-(1-methyl-3-phenyl-propyl)-2-{1-[2-(3-oxo-2,3-dihydro-benzo[1,4]oxazin-4-yl)-ethyl]-piperidin-4-yl}-benzamide]: the IC50 worked out at 4 µM.

On to `O=C(NC1CCc2ccccc21)c1ccccc1C1CCN(CCN2C(=O)COc3ccccc32)CC1` (centres unmarked) [Cpd 27, N-indan-1-yl-2-{1-[2-(3-oxo-2,3-dihydro-benzo[1,4]oxazin-4-yl)-ethyl]-piperidin-4-yl}-benzamide], for which the IC50 worked out at 43 µM.

For the compound `CC(CNC(=O)c1ccccc1C1CCN(CCN2C(=O)COc3ccccc32)CC1)c1ccccc1` (centres unmarked) [Cpd 28, 2-{1-[2-(3-oxo-2,3-dihydro-benzo[1,4]oxazin-4-yl)-ethyl]-piperidin-4-yl}-N-(2-phenyl-propyl)-benzamide], the IC50 amounted to 9 µM.

In the case of `CCCNC(=O)c1ccccc1C1CCN(CCN2C(=O)COc3ccccc32)CC1` [Cpd 29, 2-{1-[2-(3-oxo-2,3-dihydro-benzo[1,4]oxazin-4-yl)-ethyl]-piperidin-4-yl}-N-propyl-benzamide], the IC50 was 20 µM.

As for `O=C(NCCN1CCCC1)c1ccccc1C1CCN(CCN2C(=O)COc3ccccc32)CC1` [Cpd 30, 2-{1-[2-(3-oxo-2,3-dihydro-benzo[1,4]oxazin-4-yl)-ethyl]-piperidin-4-yl}-N-(2-pyrrolidin-1-yl-ethyl)-benzamide], the IC50 was determined as 32 µM.

Turning to `COCCNC(=O)c1ccccc1C1CCN(CCN2C(=O)COc3ccccc32)CC1` [Cpd 36, N-(2-methoxy-ethyl)-2-{1-[2-(3-oxo-2,3-dihydro-benzo[1,4]oxazin-4-yl)-ethyl]-piperidin-4-yl}-benzamide], the IC50 is 25 µM.

Consider `COCCCNC(=O)c1ccccc1C1CCN(CCN2C(=O)COc3ccccc32)CC1` [Cpd 37, N-(3-methoxy-propyl)-2-{1-[2-(3-oxo-2,3-dihydro-benzo[1,4]oxazin-4-yl)-ethyl]-piperidin-4-yl}-benzamide], for which the IC50 came out at 30 µM.

Consider `CCOCCCNC(=O)c1ccccc1C1CCN(CCN2C(=O)COc3ccccc32)CC1` [Cpd 38, N-(3-ethoxy-propyl)-2-{1-[2-(3-oxo-2,3-dihydro-benzo[1,4]oxazin-4-yl)-ethyl]-piperidin-4-yl}-benzamide], for which the IC50 was determined as 23 µM.
